Test results: PubChem BioAssay AID1259407 (Chemical Carcinogenesis Research Information System (CCRIS), 2018)
Active and inactive are the calls of the source. The rule behind the calls is not given here.

Test system: CCRIS mutagenicity, Ames/micronucleus/aberration tests
Test: CCRIS mutagenicity studies
[1] = Test System: AMES SALMONELLA TYPHIMURIUM, Strain/Indicator: TA97, Metabolic Activation: RAT, LIVER, S-9, AROCLOR 1254, Method: STANDARD PLATE
[2] = Test System: AMES SALMONELLA TYPHIMURIUM, Strain/Indicator: TA98, Metabolic Activation: NONE, Method: STANDARD PLATE
[3] = Test System: AMES SALMONELLA TYPHIMURIUM, Strain/Indicator: TA98, Metabolic Activation: RAT, LIVER, S-9, AROCLOR 1254, Method: STANDARD PLATE
[4] = Test System: AMES SALMONELLA TYPHIMURIUM, Strain/Indicator: TA100, Metabolic Activation: NONE, Method: STANDARD PLATE
[5] = Test System: AMES SALMONELLA TYPHIMURIUM, Strain/Indicator: TA100, Metabolic Activation: RAT, LIVER, S-9, AROCLOR 1254, Method: STANDARD PLATE
[6] = Test System: Mouse lymphoma, Strain/Indicator: L5178Y (tk+/tk-), Metabolic Activation: None, Method: Suspension/plate

CCNc1nc(Cl)nc(NCC)n1
mutagenic call (Test System: AMES SALMONELLA TYPHIMURIUM, Strain/Indicator: TA97, Metabolic Activation: NONE, Method: STANDARD PLATE): inactive; negative | mutagenic call [1]: inactive; negative | mutagenic call [2]: inactive; negative | mutagenic call [3]: inactive; negative | mutagenic call [4]: inactive; negative | mutagenic call [5]: inactive; negative | mutagenic call (Test System: AMES SALMONELLA TYPHIMURIUM, Strain/Indicator: TA102, Metabolic Activation: NONE, Method: STANDARD PLATE): inactive; negative | mutagenic call (Test System: AMES SALMONELLA TYPHIMURIUM, Strain/Indicator: TA102, Metabolic Activation: RAT, LIVER, S-9, AROCLOR 1254, Method: STANDARD PLATE): inactive; negative

c1ccc2c(c1)ccc1nc3ccc4ccccc4c3cc12
mutagenic call (Test System: AMES SALMONELLA TYPHIMURIUM, Strain/Indicator: TA98, Metabolic Activation: GUINEA PIG, LIVER, S-9, 3-METHYLCHOLANTHRENE, Method: STANDARD PLATE): inactive; negative | mutagenic call (Test System: AMES SALMONELLA TYPHIMURIUM, Strain/Indicator: TA100, Metabolic Activation: GUINEA PIG, LIVER, S-9, 3-METHYLCHOLANTHRENE, Method: STANDARD PLATE): active; positive | mutagenic call [5]: active; positive | mutagenic call (Test System: AMES SALMONELLA TYPHIMURIUM, Strain/Indicator: TA1537, Metabolic Activation: RAT, LIVER, S-9, AROCLOR 1254, Method: STANDARD PLATE): active; positive | mutagenic call (Test System: AMES SALMONELLA TYPHIMURIUM, Strain/Indicator: TA1537, Metabolic Activation: RAT, LIVER, S-9, PHENOBARBITAL, Method: STANDARD PLATE): active; positive | mutagenic call (Test System: AMES SALMONELLA TYPHIMURIUM, Strain/Indicator: TA1538, Metabolic Activation: RAT, LIVER, S-9, PHENOBARBITAL, Method: STANDARD PLATE): active; positive | mutagenic call (Test System: CHINESE HAMSTER V-79, Strain/Indicator: V-79/6-THIOGUANINE, Metabolic Activation: GUINEA PIG, LIVER, S-9, 3-METHYLCHOLANTHRENE): active; positive

COc1ccc2c(c1)-c1nn(CCCN(C)C)c3ccc([N+](=O)[O-])c(c13)N2
mutagenic call [6]: active; positive | mutagenic call (Test System: Mouse lymphoma, Strain/Indicator: L5178Y (tk+/tk-), Metabolic Activation: Rat, Liver, S-9, Aroclor 1254, Method: Suspension/plate): active; positive

N#Cc1cc(Br)c(O)c(Br)c1
mutagenic call (Test System: AMES SALMONELLA TYPHIMURIUM, Strain/Indicator: TA98, Metabolic Activation: HAMSTER, LIVER, S-9, AROCLOR 1254 (10%), Method: STANDARD PLATE): inactive; negative | mutagenic call [2]: inactive; negative | mutagenic call (Test System: AMES SALMONELLA TYPHIMURIUM, Strain/Indicator: TA98, Metabolic Activation: RAT, LIVER, S-9, AROCLOR 1254 (10%), Method: STANDARD PLATE): inactive; negative | mutagenic call (Test System: AMES SALMONELLA TYPHIMURIUM, Strain/Indicator: TA100, Metabolic Activation: HAMSTER, LIVER, S-9, AROCLOR 1254 (10%), Method: STANDARD PLATE): inactive; negative | mutagenic call [4]: inactive; negative | mutagenic call (Test System: AMES SALMONELLA TYPHIMURIUM, Strain/Indicator: TA100, Metabolic Activation: RAT, LIVER, S-9, AROCLOR 1254 (10%), Method: STANDARD PLATE): inactive; negative | mutagenic call (Test System: AMES SALMONELLA TYPHIMURIUM, Strain/Indicator: TA1535, Metabolic Activation: HAMSTER, LIVER, S-9, AROCLOR 1254 (10%), Method: STANDARD PLATE): inactive; negative | mutagenic call (Test System: AMES SALMONELLA TYPHIMURIUM, Strain/Indicator: TA1535, Metabolic Activation: NONE, Method: STANDARD PLATE): inactive; negative | mutagenic call (Test System: AMES SALMONELLA TYPHIMURIUM, Strain/Indicator: TA1535, Metabolic Activation: RAT, LIVER, S-9, AROCLOR 1254 (10%), Method: STANDARD PLATE): inactive; negative | mutagenic call (Test System: AMES SALMONELLA TYPHIMURIUM, Strain/Indicator: TA1537, Metabolic Activation: HAMSTER, LIVER, S-9, AROCLOR 1254 (10%), Method: STANDARD PLATE): inactive; negative | mutagenic call (Test System: AMES SALMONELLA TYPHIMURIUM, Strain/Indicator: TA1537, Metabolic Activation: NONE, Method: STANDARD PLATE): inactive; negative | mutagenic call (Test System: AMES SALMONELLA TYPHIMURIUM, Strain/Indicator: TA1537, Metabolic Activation: RAT, LIVER, S-9, AROCLOR 1254 (10%), Method: STANDARD PLATE): inactive; negative | mutagenic call (Test System: AMES SALMONELLA TYPHIMURIUM, Strain/Indicator: TA1538, Metabolic Activation: HAMSTER, LIVER, S-9, AROCLOR 1254 (10%), Method: STANDARD PLATE): inactive; negative | mutagenic call (Test System: AMES SALMONELLA TYPHIMURIUM, Strain/Indicator: TA1538, Metabolic Activation: NONE, Method: STANDARD PLATE): inactive; negative | mutagenic call (Test System: AMES SALMONELLA TYPHIMURIUM, Strain/Indicator: TA1538, Metabolic Activation: RAT, LIVER, S-9, AROCLOR 1254 (10%), Method: STANDARD PLATE): inactive; negative | mutagenic call (Test System: MOUSE LYMPHOMA, Strain/Indicator: L5178Y (TK+/TK-), Metabolic Activation: RAT, LIVER, S-9, AROCLOR 1254, Method: SUSPENSION/PLATE): active; positive. reevaluation of results: equivocal | mutagenic call [6]: inactive; negative

O=C(/C=C/c1ccccc1)c1ccc(-c2ccccc2)cc1
mutagenic call [2]: inactive; negative | mutagenic call [3]: inactive; negative | mutagenic call [4]: inactive; negative | mutagenic call [5]: inactive; negative

O=c1c2[nH]c3ccccc3c2nnn1/N=C/c1ccc([N+](=O)[O-])cc1
mutagenic call (Test System: AMES SALMONELLA TYPHIMURIUM, Strain/Indicator: TA97, Metabolic Activation: NONE, Method: PREINCUBATION): active; positive | mutagenic call (Test System: AMES SALMONELLA TYPHIMURIUM, Strain/Indicator: TA97, Metabolic Activation: RAT, LIVER, S-9, AROCLOR 1254 (10%), Method: PREINCUBATION): active; positive | mutagenic call (Test System: AMES SALMONELLA TYPHIMURIUM, Strain/Indicator: TA98, Metabolic Activation: NONE, Method: PREINCUBATION): active; positive | mutagenic call (Test System: AMES SALMONELLA TYPHIMURIUM, Strain/Indicator: TA98, Metabolic Activation: RAT, LIVER, S-9, AROCLOR 1254 (10%), Method: PREINCUBATION): active; positive | mutagenic call (Test System: AMES SALMONELLA TYPHIMURIUM, Strain/Indicator: TA100, Metabolic Activation: NONE, Method: PREINCUBATION): active; positive | mutagenic call (Test System: AMES SALMONELLA TYPHIMURIUM, Strain/Indicator: TA100, Metabolic Activation: RAT, LIVER, S-9, AROCLOR 1254 (10%), Method: PREINCUBATION): active; positive | mutagenic call (Test System: AMES SALMONELLA TYPHIMURIUM, Strain/Indicator: TA102, Metabolic Activation: NONE, Method: PREINCUBATION): inactive; negative | mutagenic call (Test System: AMES SALMONELLA TYPHIMURIUM, Strain/Indicator: TA102, Metabolic Activation: RAT, LIVER, S-9, AROCLOR 1254 (10%), Method: PREINCUBATION): inactive; negative

O=C(O)C[C@H](NC(=O)COc1ccc(Cl)cc1Cl)C(=O)O
mutagenic call [1]: inactive; negative | mutagenic call (Test System: AMES SALMONELLA TYPHIMURIUM, Strain/Indicator: TA97, Metabolic Activation: WOODCHUCK, LIVER, S-9, 3-METHYLCHOLANTHRENE, Method: STANDARD PLATE): inactive; negative | mutagenic call [3]: inactive; negative | mutagenic call (Test System: AMES SALMONELLA TYPHIMURIUM, Strain/Indicator: TA98, Metabolic Activation: WOODCHUCK, LIVER, S-9, 3-METHYLCHOLANTHRENE, Method: STANDARD PLATE): inactive; negative | mutagenic call [5]: inactive; negative | mutagenic call (Test System: AMES SALMONELLA TYPHIMURIUM, Strain/Indicator: TA100, Metabolic Activation: WOODCHUCK, LIVER, S-9, 3-METHYLCHOLANTHRENE, Method: STANDARD PLATE): inactive; negative | mutagenic call (Test System: AMES SALMONELLA TYPHIMURIUM, Strain/Indicator: TA1535, Metabolic Activation: RAT, LIVER, S-9, AROCLOR 1254, Method: STANDARD PLATE): inactive; negative | mutagenic call (Test System: AMES SALMONELLA TYPHIMURIUM, Strain/Indicator: TA1535, Metabolic Activation: WOODCHUCK, LIVER, S-9, 3-METHYLCHOLANTHRENE, Method: STANDARD PLATE): inactive; negative | mutagenic call (Test System: AMES SALMONELLA TYPHIMURIUM, Strain/Indicator: TA1538, Metabolic Activation: RAT, LIVER, S-9, AROCLOR 1254, Method: STANDARD PLATE): inactive; negative | mutagenic call (Test System: AMES SALMONELLA TYPHIMURIUM, Strain/Indicator: TA1538, Metabolic Activation: WOODCHUCK, LIVER, S-9, 3-METHYLCHOLANTHRENE, Method: STANDARD PLATE): inactive; negative
